Results from US5023265A, “Substituted 1-H-pyrrolopyridine-3-carboxamides” (Schering Corporation, priority 1990, dated 1991).
Where two headings read alike, the source gives them in different places.

Experiments:
cyclooxygenase = assay: Rat CO/LO Inhibition: cyclooxygenase metabolite HHT in rat pleural neutrophils; assay type: cell-based, male Wistar-Lewis rats; details: 5 M × 10^-5, rat neutrophils
Method: Male Wistar-Lewis rats were injected iv with 5 mg of BSA in 0.2 mL of pyrogen-free saline followed by an intrapleural injection of 500 μg of the IgG fraction of rabbit anti-BSA in 0.2 mL of pyrogen-free saline, all under light anesthesia. After 4 hours the pleural cavity exudate, consisting of 85-95% neutrophils, was removed. Neutrophils were isolated from the pleural exudates by centrifugation at 4° C. for 10 minutes at 200 g. The cell pellet was briefly resuspended in 17 mM Tris-HCl buffer, pH 7.2, containing 0.75% NH4 Cl in order to lyse red cells, followed by centrifugation at 4° C. for 5 minutes at 200 g. The pelleted neutrophils were rewashed in 50 mM Tris-HCl, pH 7.4, containing 100 mM NaCl and 1 mM CaCl2, for a final cell count of approximately 5×10^6 intact neutrophils/0.1 mL of suspension.
Arachidonic acid metabolism via cyclooxygenase and 5-lipoxygenase was determined by preincubating the above cell suspension with the test compound for 4 minutes at room temperature and then adding 0.1 mL of the preincubated cells to assay tubes. The final assay mixture (0.1 mL) contained 40 μM [1-^14 C]arachidonic acid, 10 μM calcium A23187 ionophore and 0.1% BRIJ®56 detergent. After 1 minutes at 37° C., assays were terminated by the addition of 2.4 mL of a CHCl3 /CH3 OH (1:1 v/v) mixture and 0.9 mL of 0.1% HCOOH. The suspension was vortexed, immediately cooled on ice, and centrifuged and the organic layer withdrawn. The extract was evaporated and resuspended in 0.1 mL of CHCl3 /CH3 OH (1:2, v/v) for spotting on silica gel TLC plates (without gypsum). Development was with petroleum ether/diethylether/acetic acid (40:60:1, v/v/v). Products were located by autoradiography and the appropriate regions scraped and counted in a liquid scintillation counter. The 5-lipoxygenase metabolite 5-hydroxy-6,8,11,14-eicosatetraenoic acid (5-HETE) and the cyclooxygenase metabolite 12-hydroxy-[…] (HHT) were identified by cochromatography with authentic standards on TLC plates. Results are reported as percent inhibition of cyclooxygenase and lipoxygenase metabolite formation. (Myers, R. F.; Siegel, M. I., Biochem. Biophys. Res. Commun., 1983, 112, 586.) Results with representative compounds of the invention are shown in Columns 10, 11 and 12 of Table 1 below.

[1] = test system: Reversed Passive Arthus Reaction (RPAR) in the rat pleural cavity; assay: RPAR-Pleural Cavity Assay; assay type: in vivo, male rats; details: for inhibition in vivo at 25 mg/kg / inhibition in vivo at 50 mg/kg: Rattus norvegicus, 4 hours
Method: RPAR-Pleural Cavity Assay
Groups of 4 male rats were injected in the penile vein with antigen (1 mg BSA in 0.2 mL of saline per rat) and 0.5 hour later injected in the pleural cavity with antibody (1.0 mg antibody protein in the IgG fraction of rabbit anti-BSA in 0.2 mL). […] After 4 hours the animals were killed with CO2, and the pleural cavities were opened and the exudate drained into a graduated conical glass centrifuge tube containing indomethacin (1.8 μg) and nordihydroguaiaretic acid (NDGA) (15 μg) to block ex vivo metabolite synthesis. The volume of the exudate was measured. The cavity was then washed out with saline-EDTA to achieve a final volume of 5.0 mL. The number of cells were determined in a Coulter Counter. The cells were spun-down (1000×g) and the exudate supernatant was added to 4 volumes of 95% ethanol and samples were kept on ice for 30 minutes. After removal of the protein precipitate (2,500×g) the ethanol extract of the exudate was dried under N2 and then stored at -20° C. For radioimmunoassay (RIA) analysis the samples were redissolved in water to a volume of 1 mL per rat. Utilizing internally spiked samples, recovery of TXB2 (tritiated thromboxane B2) and LTE4 (tritiated leukotriene-E4) from exudates was determined to be 84±2% (SEM) and 89±2% (N=4), respectively. Exudate samples were directly assayed in duplicate with the commercial ^3 H-TXB2 RIA kit from New England Nuclear and the ^3 H-LTC4 /D4 /E4 kit from Amersham. The assay was validated using reversed-phase HPLC analysis of LTs in the standard procedure described by M. W. Musch, R. W. Bryant, C. Coscollaela, R. F. Myers and M. I. Siegel, Prostaglandins, Vol. 29, pp 405-430 (1985). Samples of ethanol exudate extract were "spiked" with ^3 H-LTs to follow HPLC purification and recovery.

[2] = test system: Reversed Passive Arthus Reaction (RPAR) in the rat paw; assay: RPAR-Paw Assay (Reversed Passive Arthus Reaction, rat paw); assay type: in vivo, male Wistar/Lewis inbred albino rats; details: oral, paw volume 2 hours postchallenge, read-out: RPAR-Paw % Inhib.
Method: In order to determine the antiinflammatory activity by the reverse passive Arthus response, male Wistar/Lewis inbred albino rats weighing 180-200 g were used. The rats were housed three animals per cage and fasted 24 hours prior to and during the study. Water was allowed ad libitum.
All reagents and drugs were prepared prior to the study. Crystallized and lyophilized bovine serum albumin (BSA) was solubilized in cold, sterile, pyrogen-free saline (PFS), 10 mg/mL. Lyophylized antibovine serum albumin (anti-BSA), the IgG fraction, was suspended or solubilized in an aqueous solution of methylcellulose (MC) with a homogenizer prior to administration.
One hour prior to sensitization with BSA, groups of animals (minimum six per group) were given drug in MC by gavage according to body weight (1.0 mL/100 g). Controls were given MC alone, and a drug standard, indomethacin, was usually included in each assay. Drugs were prepared so as to provide a dose for a 200 g animal, which was equivalent to the milligram per kilogram dose for the experiment. Each rat received an oral dose in a volume of approximately 2.0 mL. One hour after dosing, the animals were lightly anesthetized with ether and "sensitized" by injection into the penile vein with 0.2 mL of PFS containing 1 mg of BSA. One hour later, the animals were "challenged" in the right hind paw with subplantar injections of 0.2 mL PFS pyrogen-free salin containing 0.1 mg of anti-BSA bovine serum albumin. Immediately after the subplantar injections, the right hand paw was immersed (to the lateral maleolus) into the mercury well of a plethysmograph. The volume of mercury displaced was converted to weight and recorded. This value was considered to be the control reading for the animal. Paw volumes were also recorded with a plethysmograph during the development of the inflammation at 2 hours postchallenge.
Results were expressed by the change in paw volume from the control reading for each animal to that recorded 2 hours postchallenge. All drug-treated groups were compared to the MC control for significant differences by using analysis of variance (Duncan and Dunnetts). Differences from control in drug-treated groups were expressed as percent inhibition.
In order to determine the dose required to inhibit the inflammatory response by 50% (ED50), a minimum of three and a maximum of five points were included in the assay. The ED50 and the relative potency to a drug standard, indomethacin, were determined by linear regression analysis. (J. Med. Chem., 1984, Vol. 27, No. 1, 27). Results for representative compounds of the invention are shown in Columns 3 and 4 of Table 1 below.

[3] = test system: Adjuvant-Induced Arthritis in Rats; assay: Adjuvant-Induced Arthritis in Rats (AAR); assay type: in vivo; details: Rattus norvegicus, 504 h; dosed 1 hour prior to adjuvant, then 21 consecutive days
[4] = read-out: RPAR-Pleural Cavity % Inhibition Cells
[5] = exudate volume, read-out: RPAR-Pleural Cavity % Inhibition Fluid
[6] = 50 mg/kg, read-out: RPAR-Pleural Cavity % Inhibition Cells
[7] = 50 mg/kg, exudate volume, read-out: RPAR-Pleural Cavity % Inhibition Fluid

SMILES | Cyclooxygenese/lipoxygenese % Inhib. HHT (cyclooxygenase) [%] | inhibition in vivo at 25 mg/kg [1, 4] [%] | inhibition in vivo at 25 mg/kg [1, 5] [%] | inhibition in vivo at 50 mg/kg [2] [%] | inhibition in vivo at 25 mg/kg [2] [%] | ED50 [3] [mg/kg] | RPAR-Pleural Cavity % Inhibition LTE4 ([1]; 50 mg/kg, LTE4 in exudate by RIA) [%] | RPAR-Pleural Cavity % Inhibition TXB2 ([1]; 50 mg/kg, TXB2 in exudate by RIA) [%] | inhibition in vivo at 50 mg/kg [1, 6] [%] | inhibition in vivo at 50 mg/kg [1, 7] [%]
O=C(Nc1ccccc1)c1c(O)n(-c2ccc(Cl)cc2)c2ncccc12 | 96 | 51 | 18 | 56 |  |  |  |  |  | 
O=C(O)c1cc(NC(=O)c2c(O)n(-c3ccccc3)c3ncccc23)ccc1O |  | 0 | 0 |  | 4 |  |  |  |  | 
CCCCNC(=O)c1c(O)n(-c2ccccc2)c2ncccc12 | 44 | 19 | 0 |  | 29 |  |  |  |  | 
O=C(Nc1ccccc1)c1c(O)n(-c2ccccc2)c2ncccc12 | 93 | 56 | 49 |  | 60 | 9 | 59 | 100 | 61 | 27
CC(C)c1ccc(-n2c(O)c(C(=O)Nc3ccccc3)c3cccnc32)cc1 |  | 9 | 8 |  | 34 |  |  |  |  | 
Cc1cc(NC(=O)c2c(O)n(-c3ccccc3)c3ncccc23)no1 | 45 | 0 | 0 |  | 10 |  |  |  |  | 
O=C(Nc1ccccn1)c1c(O)n(-c2ccccc2)c2ncccc12 | 78 |  |  | 26 |  |  |  |  |  | 
CC(C)n1c(O)c(C(=O)Nc2ccccc2)c2cccnc21 |  | 34 | 44 |  |  |  |  |  | 65 | 57
O=C(Nc1ccccc1)c1c(O)[nH]c2ncccc12 | 0 |  |  |  | 22 |  |  |  |  | 
O=C(Nc1ccc(F)cc1F)c1c(O)n(-c2ccccc2)c2ncccc12 | 96 |  |  | 33 |  |  |  |  |  | 
CC(C)(C)n1c(O)c(C(=O)Nc2ccccc2)c2cccnc21 |  | 41 | 26 |  | 36 |  |  |  |  | 
O=C(Nc1ccccc1)c1c(O)n(-c2cccc(C(F)(F)F)c2)c2ncccc12 | 56 | 0 | 0 | 60 |  |  |  |  |  | 
O=C(Nc1cccc(C(F)(F)F)c1)c1c(O)n(-c2ccccc2)c2ncccc12 | 60 | 22 | 0 |  | 41 |  |  |  |  | 
Cn1c(O)c(C(=O)Nc2ccccc2)c2cccnc21 | 0 | 45 | 5 |  |  |  |  |  |  | 
CC(C)(C)NC(=O)c1c(O)n(-c2ccccc2)c2ncccc12 |  | 66 | 23 |  | 49 |  |  |  |  | 
O=C(Nc1ccccc1)c1c(O)n(Cc2ccc(F)cc2)c2ncccc12 | 57 | 30 | 46 |  | 32 |  |  |  |  | 
O=C(Nc1ccccc1)c1c(O)n(Cc2ccccc2)c2ncccc12 | 34 | 36 | 76 |  | 42 | 33 |  |  |  | 
O=C(NCc1ccccc1)c1c(O)n(-c2ccccc2)c2ncccc12 | 34 | 0 | 0 |  | 0 |  |  |  |  | 
COc1ccc(NC(=O)c2c(O)n(-c3ccccc3)c3ncccc23)cc1 |  | 28 | 27 |  | 42 |  |  |  |  | 
